Experiments:
MRL/Ipr (Dry Eye) Mice = tested on: MRL/Ipr (Dry Eye) Mice
Experimental: To study the level of tear production over time, 10 MRL/Ipr mice and 5 of the age-matched C57 Black/6 control mice at 8 weeks of age were purchased from Jackson Laboratory (Bar Harbor, Me., USA). The mouse strain MRL/Ipr has a mutation which predisposes it to dry eye similar to Sjogren's Syndrome.
Tear production was measured with cotton thread (Quick Zone®) held with forceps and applied to the ocular surface at the lateral canthus for 15 to 30 seconds. Wetting of the thread was measured in millimeters.
C57 mice also received vehicle. Tear volume was measured on days 2, 3, and 6.
Tear measurement was done using phenol red impregnated thread (Quick Zone®) and baseline measurement was performed before each drug application. Drugs or vehicles were applied at 2 μl, two times a day.
Vehicle-treated normal C57black/6 and MRL/Ipr dry eye mice were used as normal control and dry eye control, respectively.
Control animals included normal C57Black/6 mice, and MRL/Ipr mice, treated with PBS vehicle and MRL/Ipr mice treated with Refresh Endura® (vehicle for Restasis) (5-10 mice/group).
As with Example 4 above, vehicle-treated normal C57black/6 and MRL/Ipr dry eye mice (5-10 mice/group) were used as normal control and dry eye control, respectively. […] Treatment for Formulation 1 was carried for two weeks, at 2 μl, twice a day.

dry-induced C57 mice = test: Induced dry eye mouse model (scopolamine and fans), tear production; type: in vivo; conditions: for tear production versus normal tear production values: after 4 days of treatment, induced dry eye mice
Experimental: An injection was prepared comprising 2.5 mg/ml scopolamine (sigma) in injectable saline (1-1.5 ml per animal). In normal C57 mice (200-250) ul of scopolamine was injected four times every 2.5 hrs in alternating hind quarters. The mice were placed in special cages (with holes in front and back) and placed in a hood. Fans were placed in front of each cage, and turned on for 16 hours over night for five days.
Measurements were taken daily.
As with Examples 4 and 5 above, animals were treated with drug or vehicle at 1 μl, once a day for 2 weeks.

[1] = CP-690550 0.01% vs Restasis (cyclosporine 0.05%), twice a day for 30 days, MRL/Ipr mice (FIG. 3)

## C[C@@H]1CCN(C(=O)CC#N)C[C@@H]1N(C)c1ncnc2[nH]ccc12 [CP0690550, 3-{(3R,4R)-4-Methyl-3-[methyl-(7H-pyrrolo[2,3-d]pyrimidin-4-yl)-amino]-piperidin-1-yl}-3-oxo-propionitrile]
MRL/Ipr (Dry Eye) Mice; 0.01% (w/w) in Formulation 1 vehicle, twice a day, within 8 days, MRL/Ipr mice (FIG. 4)
  tear production comparable to normal: within x% of tear production by C57 normal mice: 5 to 10%
MRL/Ipr (Dry Eye) Mice; 0.1% (w/w) twice a day, topical, MRL/Ipr mice, within the first 2 days of application (FIG. 2)
  increase of tear production volume: significantly increase
MRL/Ipr (Dry Eye) Mice; [1]
  response rate as compared to Restasis: much faster response rate
  volume of tear production over Restasis: significant improvement
MRL/Ipr (Dry Eye) Mice; all comparisons (Formulations 1, 3 and 4 vehicle, FIGS. 4-6), 2 days after treatment, MRL/Ipr mice
  improvement in tear production: significant improvement
MRL/Ipr (Dry Eye) Mice; ultimately reached, MRL/Ipr mice, FIGS. 3 and 4
  tear production volume comparable to normal: within x% of tear production by normal C57 mice: 5 to 10%
dry-induced C57 mice; 0.003% in Formulation 5, once a day
  tear production versus normal tear production values: approximated normal tear production values
dry-induced C57 mice; 0.01% (w/w) in Formulation 3, once a day
  tear production versus normal tear production values: approximated normal tear production values
dry-induced C57 mice; Formulations 3 and 5, 1 μl once a day, at 2 days of treatment, induced dry eye mice (FIGS. 7 and 8)
  increase in tear production: significant increase

Source: US8541426B2, “Pharmaceutical compositions and methods of treating dry eye disorders” (Pfizer Inc., priority 2007, dated 2013)
